# Test results published in ChEMBL document CHEMBL4630908 (2021).
# Columns and labels:
# [1] = biological target: T1, 5-hydroxytryptamine receptor 1B (Homo sapiens, UniProt P28222); details: Compound concentration 10.0 uM
# [2] = biological target: 5-hydroxytryptamine receptor 3A (Homo sapiens) (UniProt P46098); details: Compound concentration 10.0 uM
# [3] = biological target: T2, Bromodomain-containing protein 2 (Homo sapiens, UniProt P25440); experiment: BRD2(1) DiscoverX BROMOscan
# [4] = biological target: Histamine H2 receptor (Homo sapiens) (UniProt P25021); details: Compound concentration 10.0 uM
# [5] = biological target: Transcription initiation factor TFIID subunit 1 (Homo sapiens, UniProt P21675); experiment: TAF1(2) DiscoverX BROMOscan
# [6] = biological target: 5-hydroxytryptamine receptor 1D (Homo sapiens, UniProt P28221); experiment: GPCRScan assay: inhibition of 5-HT1D; set-up: radioligand conc. used [nm] 1.0 – 2.0, parental cells HEKT
# [7] = biological target: T3, Bromodomain testis-specific protein (Homo sapiens, UniProt Q58F21); experiment: BRDT(2) DiscoverX BROMOscan
# [8] = biological target: D(1B) dopamine receptor (Homo sapiens) (UniProt P21918); details: Compound concentration 10.0 uM
# [9] = biological target: GABA-A receptor; anion channel (Rattus norvegicus) (UniProt O09028+P15431+P18506+P18508+P19969+P20236+P23574+P23576+P28471+P28473+P30191+P62813+P63079+P63138+Q91ZM7+Q9ES14); details: Compound concentration 10.0 uM
# [10] = biological target: Sigma non-opioid intracellular receptor 1 (Homo sapiens) (UniProt Q99720); details: Compound concentration 10.0 uM
# [11] = biological target: Bromodomain-containing protein 3 (Homo sapiens, UniProt Q15059); experiment: BET mutant TR-FRETassay (BRD3 BD1)
# Protein polybromo-1 = Protein polybromo-1 (Homo sapiens, UniProt Q86U86); experiment: PBRM1(5) DiscoverX BROMOscan
# [12] = biological target: D(4) dopamine receptor (Homo sapiens) (UniProt P21917); details: Compound concentration 10.0 uM
# [13] = biological target: Chromatin remodeling regulator CECR2 (Homo sapiens, UniProt Q9BXF3); experiment: CECR2 DiscoverX BROMOscan
# Rattus norvegicus = species on record: Rattus norvegicus; details: Compound concentration 10.0 uM
# [14] = biological target: Delta-type opioid receptor (Homo sapiens) (UniProt P41143); details: Compound concentration 10.0 uM
# [15] = biological target: T3, Bromodomain testis-specific protein; experiment: BET mutant TR-FRET assay (BRDT BD2)
# [16] = biological target: Alpha-1B adrenergic receptor (Homo sapiens) (UniProt P35368); details: Compound concentration 10.0 uM
# [17] = biological target: T2, Bromodomain-containing protein 2; experiment: BRD2(2) DiscoverX BROMOscan
# Histamine H1 receptor = Histamine H1 receptor (Homo sapiens, UniProt P35367); experiment: (§1) Cross screening panel
# [18] = biological target: Sodium-dependent serotonin transporter (Homo sapiens, UniProt P31645); experiment: as §1
# [19] = biological target: Sodium channel protein type 5 subunit alpha (Homo sapiens, UniProt Q14524); experiment: as §1
# [20] = biological target: T1, 5-hydroxytryptamine receptor 1B; experiment: as §1
# [21] = biological target: T4, Kappa-type opioid receptor (Homo sapiens, UniProt P41145); experiment: as §1
# [22] = biological target: Muscarinic acetylcholine receptor M2 (Homo sapiens, UniProt P08172); experiment: as §1
# Cannabinoid receptor 2 = Cannabinoid receptor 2 (Homo sapiens, UniProt P34972); experiment: as §1
# D(1A) dopamine receptor = D(1A) dopamine receptor (Homo sapiens, UniProt P21728); experiment: as §1
# [23] = biological target: cGMP-inhibited 3',5'-cyclic phosphodiesterase 3A (Homo sapiens, UniProt Q14432); experiment: as §1
# D(2) dopamine receptor = D(2) dopamine receptor (Homo sapiens, UniProt P14416); experiment: as §1
# [24] = biological target: Muscarinic acetylcholine receptor M1 (Homo sapiens, UniProt P11229); experiment: as §1
# Adenosine receptor A2a = Adenosine receptor A2a (Homo sapiens, UniProt P29274); experiment: as §1
# [25] = biological target: Beta-2 adrenergic receptor (Homo sapiens, UniProt P07550); experiment: as §1
# [26] = biological target: Acetylcholine receptor subunit alpha (Homo sapiens, UniProt P02708); experiment: as §1
# [27] = biological target: Alpha-2C adrenergic receptor (Homo sapiens, UniProt P18825); experiment: as §1
# [28] = biological target: Alpha-1B adrenergic receptor (Homo sapiens, UniProt P35368); experiment: as §1
# Vasopressin V1a receptor = Vasopressin V1a receptor (Homo sapiens, UniProt P37288); experiment: as §1
# [29] = biological target: Tyrosine-protein kinase Lck (Homo sapiens, UniProt P06239); experiment: as §1
# [30] = biological target: Potassium voltage-gated channel subfamily A member 5 (Homo sapiens, UniProt P22460); experiment: as §1
# [31] = biological target: Prostaglandin G/H synthase 2 (Homo sapiens, UniProt P35354); experiment: as §1
# [32] = biological target: 5-hydroxytryptamine receptor 2A (Homo sapiens, UniProt P28223); experiment: as §1
# [33] = biological target: Nuclear receptor subfamily 1 group I member 2 (Homo sapiens, UniProt O75469); experiment: as §1
# Substance-P receptor = Substance-P receptor (Homo sapiens, UniProt P25103); experiment: as §1
# Acetylcholinesterase = Acetylcholinesterase (Homo sapiens, UniProt P22303); experiment: as §1
# Aurora kinase B = Aurora kinase B (Homo sapiens, UniProt Q96GD4); experiment: as §1
# [34] = biological target: Amine oxidase [flavin-containing] A (Homo sapiens, UniProt P21397); experiment: as §1
# [35] = biological target: 5-hydroxytryptamine receptor 3A (Homo sapiens, UniProt P46098); experiment: as §1
# [36] = biological target: Voltage-dependent L-type calcium channel subunit alpha-1C (Homo sapiens, UniProt Q13936); experiment: as §1
# [37] = biological target: 3',5'-cyclic-AMP phosphodiesterase 4B (Homo sapiens, UniProt Q07343); experiment: as §1
# [38] = biological target: Glutamate receptor ionotropic, NMDA 2B (Homo sapiens, UniProt Q13224); experiment: as §1
# [39] = biological target: Solute carrier organic anion transporter family member 1B1 (Homo sapiens, UniProt Q9Y6L6); experiment: as §1
# [40] = biological target: Aryl hydrocarbon receptor (Homo sapiens, UniProt P35869); experiment: as §1
# Mu-type opioid receptor = Mu-type opioid receptor (Homo sapiens, UniProt P35372); experiment: as §1
# [41] = biological target: 5-hydroxytryptamine receptor 2C (Homo sapiens, UniProt P28335); experiment: as §1
# [42] = biological target: Phosphatidylinositol 4,5-bisphosphate 3-kinase catalytic subunit gamma isoform (Homo sapiens, UniProt P48736); experiment: as §1
# [43] = biological target: 5-hydroxytryptamine receptor 5A (Homo sapiens) (UniProt P47898); details: Compound concentration 10.0 uM
# [44] = biological target: Histone acetyltransferase KAT2B (Homo sapiens, UniProt Q92831); experiment: PCAF DiscoverX BROMOscan
# [45] = biological target: T4, Kappa-type opioid receptor; details: Compound concentration 10.0 uM
# T1 sequence (P28222 whole entry): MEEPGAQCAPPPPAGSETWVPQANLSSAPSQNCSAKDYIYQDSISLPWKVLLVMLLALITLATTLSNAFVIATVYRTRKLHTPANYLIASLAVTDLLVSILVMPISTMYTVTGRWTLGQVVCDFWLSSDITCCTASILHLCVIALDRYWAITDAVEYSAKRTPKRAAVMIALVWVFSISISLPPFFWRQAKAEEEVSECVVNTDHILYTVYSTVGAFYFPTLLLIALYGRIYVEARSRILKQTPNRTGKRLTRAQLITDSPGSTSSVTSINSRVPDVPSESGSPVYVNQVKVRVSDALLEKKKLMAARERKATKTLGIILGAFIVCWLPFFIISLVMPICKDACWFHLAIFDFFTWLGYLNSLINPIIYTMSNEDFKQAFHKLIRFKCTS
# T4 sequence (P41145 whole entry): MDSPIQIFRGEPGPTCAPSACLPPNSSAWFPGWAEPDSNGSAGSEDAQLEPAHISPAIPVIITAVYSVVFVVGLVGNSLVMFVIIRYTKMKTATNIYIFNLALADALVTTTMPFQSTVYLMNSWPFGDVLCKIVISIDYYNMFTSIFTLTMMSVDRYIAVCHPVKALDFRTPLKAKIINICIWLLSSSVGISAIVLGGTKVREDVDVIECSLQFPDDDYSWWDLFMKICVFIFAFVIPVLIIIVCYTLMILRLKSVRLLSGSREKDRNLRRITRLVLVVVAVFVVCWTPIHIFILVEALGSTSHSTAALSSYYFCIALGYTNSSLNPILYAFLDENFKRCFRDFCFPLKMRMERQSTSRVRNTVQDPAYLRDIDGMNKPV
# Chain of 5-hydroxytryptamine receptor 3A (P46098 whole entry): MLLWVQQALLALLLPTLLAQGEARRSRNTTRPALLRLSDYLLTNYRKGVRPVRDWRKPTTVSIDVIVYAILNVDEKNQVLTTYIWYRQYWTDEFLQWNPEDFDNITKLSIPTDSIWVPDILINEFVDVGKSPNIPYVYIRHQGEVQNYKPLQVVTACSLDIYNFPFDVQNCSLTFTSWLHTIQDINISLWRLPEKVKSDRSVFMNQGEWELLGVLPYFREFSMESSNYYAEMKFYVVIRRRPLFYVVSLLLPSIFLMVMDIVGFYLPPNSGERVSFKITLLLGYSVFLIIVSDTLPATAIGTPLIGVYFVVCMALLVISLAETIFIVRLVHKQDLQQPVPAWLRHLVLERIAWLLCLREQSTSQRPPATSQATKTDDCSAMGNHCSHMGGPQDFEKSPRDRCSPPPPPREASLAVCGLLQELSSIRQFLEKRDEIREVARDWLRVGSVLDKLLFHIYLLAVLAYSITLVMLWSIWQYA
# T2 sequence (P25440 whole entry): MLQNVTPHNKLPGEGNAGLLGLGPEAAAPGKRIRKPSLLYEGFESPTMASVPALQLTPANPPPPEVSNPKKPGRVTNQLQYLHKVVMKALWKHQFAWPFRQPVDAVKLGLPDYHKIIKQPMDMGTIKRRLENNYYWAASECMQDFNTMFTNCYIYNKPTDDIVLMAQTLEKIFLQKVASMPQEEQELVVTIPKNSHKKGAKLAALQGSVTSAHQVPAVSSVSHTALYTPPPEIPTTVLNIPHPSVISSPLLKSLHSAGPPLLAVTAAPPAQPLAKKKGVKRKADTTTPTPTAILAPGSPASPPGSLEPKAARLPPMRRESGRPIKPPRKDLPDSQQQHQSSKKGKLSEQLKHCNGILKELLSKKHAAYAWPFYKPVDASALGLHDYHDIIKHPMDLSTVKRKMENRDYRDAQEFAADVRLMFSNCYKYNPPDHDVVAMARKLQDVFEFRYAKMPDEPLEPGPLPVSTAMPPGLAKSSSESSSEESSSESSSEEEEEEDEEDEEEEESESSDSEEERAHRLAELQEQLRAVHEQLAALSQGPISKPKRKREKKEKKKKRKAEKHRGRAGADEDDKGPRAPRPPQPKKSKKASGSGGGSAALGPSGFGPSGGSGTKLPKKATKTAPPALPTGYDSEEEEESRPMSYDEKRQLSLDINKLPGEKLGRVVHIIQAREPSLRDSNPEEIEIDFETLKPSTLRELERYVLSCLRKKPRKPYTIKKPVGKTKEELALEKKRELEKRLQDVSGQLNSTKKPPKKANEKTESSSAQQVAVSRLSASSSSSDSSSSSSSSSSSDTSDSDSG
# Chain of Acetylcholine receptor subunit alpha (P02708 whole entry): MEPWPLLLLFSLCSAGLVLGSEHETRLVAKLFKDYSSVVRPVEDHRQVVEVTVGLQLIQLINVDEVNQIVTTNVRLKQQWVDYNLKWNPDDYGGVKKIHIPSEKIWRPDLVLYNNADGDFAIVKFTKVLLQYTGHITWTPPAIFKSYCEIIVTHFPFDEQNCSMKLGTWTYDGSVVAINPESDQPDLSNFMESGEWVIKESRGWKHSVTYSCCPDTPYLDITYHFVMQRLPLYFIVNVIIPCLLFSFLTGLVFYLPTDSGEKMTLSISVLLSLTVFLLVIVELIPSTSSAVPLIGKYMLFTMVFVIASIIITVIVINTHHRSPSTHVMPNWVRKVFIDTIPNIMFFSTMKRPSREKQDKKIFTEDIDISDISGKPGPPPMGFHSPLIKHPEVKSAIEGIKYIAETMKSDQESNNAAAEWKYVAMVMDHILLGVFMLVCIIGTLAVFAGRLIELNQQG
# Chain of Muscarinic acetylcholine receptor M2 (P08172 whole entry): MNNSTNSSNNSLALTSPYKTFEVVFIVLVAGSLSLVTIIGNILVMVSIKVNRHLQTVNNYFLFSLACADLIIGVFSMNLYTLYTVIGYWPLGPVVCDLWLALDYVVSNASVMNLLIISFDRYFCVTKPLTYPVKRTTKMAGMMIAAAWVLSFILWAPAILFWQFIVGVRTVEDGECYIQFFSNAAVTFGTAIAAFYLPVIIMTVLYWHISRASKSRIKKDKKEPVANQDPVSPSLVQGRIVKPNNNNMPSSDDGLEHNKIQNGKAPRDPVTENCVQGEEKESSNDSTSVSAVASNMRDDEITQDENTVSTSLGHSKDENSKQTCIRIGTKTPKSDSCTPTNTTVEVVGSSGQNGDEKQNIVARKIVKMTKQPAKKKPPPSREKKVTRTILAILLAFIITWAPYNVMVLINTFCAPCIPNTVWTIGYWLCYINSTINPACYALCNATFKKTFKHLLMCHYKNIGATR
# Chain of D(2) dopamine receptor (P14416 whole entry): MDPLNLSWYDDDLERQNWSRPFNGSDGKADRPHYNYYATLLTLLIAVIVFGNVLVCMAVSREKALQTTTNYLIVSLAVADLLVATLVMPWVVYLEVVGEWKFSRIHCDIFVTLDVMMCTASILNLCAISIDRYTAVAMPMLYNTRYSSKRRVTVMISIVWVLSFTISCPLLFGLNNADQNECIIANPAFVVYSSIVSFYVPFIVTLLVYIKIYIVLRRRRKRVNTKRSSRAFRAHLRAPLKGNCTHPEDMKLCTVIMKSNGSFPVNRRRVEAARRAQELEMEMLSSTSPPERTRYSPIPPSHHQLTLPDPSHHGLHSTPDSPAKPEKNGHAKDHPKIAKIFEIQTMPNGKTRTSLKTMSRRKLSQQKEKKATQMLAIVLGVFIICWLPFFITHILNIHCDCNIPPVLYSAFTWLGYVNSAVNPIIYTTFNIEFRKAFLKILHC
# Chain of Beta-2 adrenergic receptor (P07550 whole entry): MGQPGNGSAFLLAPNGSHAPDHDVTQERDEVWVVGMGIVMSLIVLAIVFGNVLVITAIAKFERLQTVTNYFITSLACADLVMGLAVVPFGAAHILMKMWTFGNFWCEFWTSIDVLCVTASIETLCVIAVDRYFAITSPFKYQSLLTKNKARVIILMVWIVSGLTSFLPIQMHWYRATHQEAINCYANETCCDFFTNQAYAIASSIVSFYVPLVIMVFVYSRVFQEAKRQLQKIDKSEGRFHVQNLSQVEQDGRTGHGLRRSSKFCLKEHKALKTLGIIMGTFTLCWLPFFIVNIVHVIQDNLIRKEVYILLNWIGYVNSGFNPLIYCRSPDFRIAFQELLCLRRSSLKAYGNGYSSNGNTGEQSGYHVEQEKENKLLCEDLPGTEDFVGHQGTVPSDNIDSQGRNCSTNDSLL
# Chain of Muscarinic acetylcholine receptor M1 (P11229 whole entry): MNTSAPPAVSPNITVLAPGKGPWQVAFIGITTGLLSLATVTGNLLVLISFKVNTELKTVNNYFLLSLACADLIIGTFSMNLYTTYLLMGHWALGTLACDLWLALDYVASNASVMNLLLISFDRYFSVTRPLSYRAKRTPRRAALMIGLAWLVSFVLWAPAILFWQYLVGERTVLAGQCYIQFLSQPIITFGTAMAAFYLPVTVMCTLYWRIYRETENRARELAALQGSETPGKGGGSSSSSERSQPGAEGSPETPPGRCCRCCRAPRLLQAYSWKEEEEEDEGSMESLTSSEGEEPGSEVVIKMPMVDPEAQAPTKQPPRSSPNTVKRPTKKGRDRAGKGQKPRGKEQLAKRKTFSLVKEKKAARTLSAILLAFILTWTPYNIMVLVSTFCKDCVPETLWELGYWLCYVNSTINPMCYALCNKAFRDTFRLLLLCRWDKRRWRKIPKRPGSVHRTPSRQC
# Chain of Nuclear receptor subfamily 1 group I member 2 (O75469 whole entry): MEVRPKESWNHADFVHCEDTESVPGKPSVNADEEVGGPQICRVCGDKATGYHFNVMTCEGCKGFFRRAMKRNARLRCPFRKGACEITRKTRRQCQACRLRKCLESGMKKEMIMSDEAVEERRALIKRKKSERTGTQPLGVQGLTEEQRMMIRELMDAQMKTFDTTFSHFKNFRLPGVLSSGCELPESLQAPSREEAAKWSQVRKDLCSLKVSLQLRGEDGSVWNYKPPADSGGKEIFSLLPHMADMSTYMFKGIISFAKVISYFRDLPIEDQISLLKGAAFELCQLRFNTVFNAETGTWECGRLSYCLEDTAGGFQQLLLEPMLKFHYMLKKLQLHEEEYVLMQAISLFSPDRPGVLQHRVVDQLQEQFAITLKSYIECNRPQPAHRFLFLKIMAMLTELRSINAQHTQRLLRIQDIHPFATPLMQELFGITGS
# Chain of 5-hydroxytryptamine receptor 3A (Homo sapiens) (P46098 whole entry): as the sequence (P46098 whole entry) above
structure (smiles),measurement,setting,value
CC(=O)Nc1c(F)cc(C(=O)N[C@H]2CC[C@H](O)CC2)cc1O[C@@H](C)c1ccccc1 [GSK046],inhibition,[1],11.6%
same,inhibition,[2],3.77%
same,Kd,[3],1.62 µM
same,inhibition,[4],-7.57%
same,Kd,[5],30 µM
same,Ki,[6],3.44 µM
same,Kd,[7],0.015 µM
same,inhibition,[8],21.4%
same,inhibition,[9],0.61%
same,inhibition,[10],6.84%
same,pIC50,[11],4.4
same,Kd,Protein polybromo-1,30 µM
same,inhibition,[12],36%
same,Kd,[13],30 µM
same,inhibition,Rattus norvegicus,5.68%
same,inhibition,[14],27.1%
same,pIC50,[15],6.7
same,inhibition,[16],-0.75%
same,Kd,[17],0.035 µM
same,IC50,Histamine H1 receptor,> 25.1 µM
same,IC50,[18],> 100 µM
same,IC50,[19],> 100 µM
same,EC50,[20],> 100 µM
same,IC50,[20],> 100 µM
same,EC50,[21],> 100 µM
same,EC50,[22],> 50.1 µM
same,IC50,[22],> 50.1 µM
same,EC50,Cannabinoid receptor 2,> 100 µM
same,IC50,D(1A) dopamine receptor,> 100 µM
same,IC50,[23],> 100 µM
same,EC50,D(2) dopamine receptor,> 100 µM
same,Ki,D(2) dopamine receptor,> 100 µM
same,EC50,[24],> 50.1 µM
same,IC50,[24],> 50.1 µM
same,EC50,Adenosine receptor A2a,31.6 µM
same,EC50,[25],> 100 µM
same,IC50,[25],> 100 µM
same,EC50,[26],> 50.1 µM
same,IC50,[26],25.1 µM
same,EC50,[27],> 100 µM
same,Ki,[28],> 25.1 µM
same,IC50,Vasopressin V1a receptor,> 39.8 µM
same,IC50,[29],> 31.6 µM
same,IC50,[30],> 50.1 µM
same,IC50,[31],> 100 µM
same,EC50,[32],> 25.1 µM
same,EC50,[33],> 50.1 µM
same,IC50,Substance-P receptor,> 25.1 µM
same,IC50,Acetylcholinesterase,7.94 µM
same,IC50,Aurora kinase B,> 31.6 µM
same,IC50,[34],> 100 µM
same,EC50,[35],> 50.1 µM
same,IC50,[35],> 50.1 µM
same,IC50,[36],100 µM
same,IC50,[37],> 100 µM
same,IC50,[38],> 50.1 µM
same,IC50,[39],> 50.1 µM
same,EC50,[40],> 100 µM
same,EC50,Mu-type opioid receptor,> 100 µM
same,EC50,[41],> 25.1 µM
same,IC50,[42],> 31.6 µM
same,inhibition,[43],-8.96%
same,Kd,[44],30 µM
same,inhibition,[45],9.38%
